These results are taken from patent US20230123585A1, “COMPOSITIONS AND METHODS FOR TREATING OR PREVENTING CANCER USING DEUBIQUITINASE INHIBITORS” (The University of Chicago, priority 2020, published 2023).

Structures are written as SMILES.

One experiment deals with p-METTL3 (S43). Nature of the experiment: p-METTL3 (S43) in A375 cells, IP with METTL3 antibody followed by immunoblot. It is filed as cell-based, human. The conditions noted are these: 1 h, 1 μM dabrafenib, 1 μM PLX-4720, 10 μM PD0325901, 0.1 μM trametinib. An excerpt:
FIGS. 10A-10G: ERK Interacts and Phosphorylates METTL3 and WTAP. (A-C) Mass spectrometry detected S43, S50 and S525 phosphorylation in METTL3 in 293T cells co-transfected with B-RAF V600E. (D) Characterization of anti-p-METTL3 (S43) antibodies of 293T cells transfected as indicated with MEK S218D/S222D, HER2 V659E, B-RAF V600E and WT or non-phosphorylatable alanine mutant (3A) METTL3. (E) The METTL3 S43 phosphorylation was identified by in vitro kinase assays, in which purified METTL3-METTL14 were incubated with activated ERK2. (F) A375 cells were treated with 1 μM dabrafenib, 1 μM PLX-4720, 10 μM PD0325901, 0.1 μM tramentib for 1 h. Cell lysates were subjected to IP with METTL3 antibody followed by immunoblot. (G) Phos-tag SDS-PAGE showing the phosphorylation status of WT or non-phosphorylatable alanine mutants of mice WTAP in 293T cells co-transfected with B-RAF. 2A, T298A/S341A.
To investigate METTL3 phosphorylation by ERK inside cells, a polyclonal antibody was generated that targets S43-phosphorylated METTL3. This antibody recognizes S43-phosphorylated METTL3 but not a mutant form of METTL3, METTL3 3A, with all three phosphorylation serine sites replaced with alanine (FIG. 10D). This P-S43 antibody was then used as a tool to monitor METTL3 phosphorylation. […] Furthermore, the p-METTL3 (S43) in A375 cells, a human melanoma cell line with constitutively active ERK due to a B-RAF V600E mutation, was abrogated by treatments with B-RAF inhibitors (dabrafenib and PLX4720) or MEK inhibitors (PD0325901 and trametinib) (FIG. 10F), supporting that S43 phosphorylation on METTL3 is installed through the ERK pathway.
Immunoprecipitation, immunoblotting, and in vitro kinase assay. Immunoprecipitation (IP) and immunoblotting (IB) were performed as previously described (Sun et al., 2016). […] Primary antibodies were detected by HRP-linked secondary antibodies (Cell Signaling) together with SuperSignal West Pico Plus chemiluminescent substrate (Thermo Scientific) and imaged in a FluorChem R system (ProteinSimple).
On the technique in general: A western blot detects proteins with antibodies after separation by electrophoresis.

The test system of experiment [1] is METTL3 / m^6A methyltransferase complex in A375 cells. The experiment is described as follows: Immunoblot of METTL3 / m^6A methyltransferase complex protein in A375 cell lysates. It is filed as cell-based, human. The procedure:
FIGS. 6A-6H: Phosphorylation of the m^6A Methyltransferase Complex May Affect Tumorigenesis. (A) Lysates of A375 stable transfectants harvested at different time points after treatment with cycloheximide (CHX) 10 μg/ml were analyzed by immunoblot. (B) LC-MS/MS quantification of the m^6A/A ratio in mRNA of A375 stable transfectants. (C) After 8 h treatment with 10 μM PD0325901 or 0.1 μM tramentib, cell lysates from A375 cells were analyzed by immunoblot. (D) LC-MS/MS quantification of the m^6A/A ratio in mRNA of A375 cells treated with 10 μM PD0325901 or 0.1 μM tramentib for 48 h. (E) After 8hr treatment with 10 μM EOAI3402143 (EOAI) or 30 μM vialinin A , cell lysates from A375 cells were analyzed by immunoblot. (F) A375 stable transfectants as indicated were treated with 3 μM EOAI3402143 (EOAI) or 10 μM vialinin A before measuring cell viability by SRB assay. Data are presented as relative to the R-WT cells without drug treatment (n=3 per group, data represent mean±SEM). (G) Immunofluorescence analysis of METTL3 (green) in SKBR3 cells treated with 1 μM tucatinib and 1 μM lapatinib for 8 hr. DAPI (blue) was used to mark the nucleus. (H) LC-MS/MS quantification of the m^6A/A ratio in mRNA of SKBR3 and BT474 cells treated with 1 μM tucatinib and 1 μM lapatinib for 48 h. (See also FIG. 14.)
FIGS. 11A-11G: USP5 is Required for ERK-Mediated METTL3 Stabilization. (A) A375 cells transfected with HA-ubiquitin (ub) were treated with 10 μM MG-132 and MEK inhibitor PD0325901 for 8 h. The ubiquitination of METTL3 was detected by IP with anti-METTL3 and immunoblot with anti-HA. (B) After 8 h treatment with 10 μM PD0325901 with or without 10 μM MG-132, cell lysates from A375 cells were analyzed by immunoblot. (C) A375 cells were treated with various concentrations of PD0325901 for 1 h. Cell lysates were subjected to IP with METTL3 antibody followed by immunoblot. (D) 293T cells transfected as indicated were subjected to IP/immunoblot analysis. (E) Immunofluorescence analysis of myc-METTL3 (green) in mESC stable transfectants. DAPI (blue) was used to mark the nucleus. (F) Lysates of 293T cells transfected as indicated were subjected to IP with anti-Flag antibody followed by immunoblot. (G) Immunofluorescence analysis of 293T cells co-transfected with myc-METTL3 (green), Flag-USP5 (red) with or without constitutively active B-RAF.
Immunoprecipitation, immunoblotting, and in vitro kinase assay. Immunoprecipitation (IP) and immunoblotting (IB) were performed as previously described (Sun et al., 2016). In brief, protein samples were isolated from respective cells by lysis in RIPA buffer (1% Triton X-100, 150 mM NaCl, 20 mM Na2PO4, pH 7.4) containing Halt Protease and Phosphatase Inhibitor Cocktail (Thermo Scientific). Subsequently, a BCA assay (Thermo Scientific) was used to determine the protein concentrations. For IP, indicated antibody and protein A/G magnetic beads (Thermo Scientific) were incubated with lysate at 4° C. overnight followed by washing and elution with sample buffer. Equal amounts of protein were separated by SDS-PAGE followed by wet transfer to PVDF membranes. Blots were blocked with 5% non-fat milk or BSA and incubated with respective primary antibody at 4° C. overnight. Primary antibodies were detected by HRP-linked secondary antibodies (Cell Signaling) together with SuperSignal West Pico Plus chemiluminescent substrate (Thermo Scientific) and imaged in a FluorChem R system (ProteinSimple).

With `O=C(NOC[C@H](O)CO)c1ccc(F)c(F)c1Nc1ccc(I)cc1F` [PD0325901], the “p-METTL3 (S43)” value in the experiment on p-METTL3 (S43) was “abrogated”. Besides, in experiment [1] (A375 cells, 10 μM PD0325901, 8 h), the “degradation of METTL3” value is “increased”. Moreover, the “protein levels of the m^6A methyltransferase complex” value in experiment [1] (A375 melanoma cells, 8 h, 10 μM PD0325901 or 0.1 μM trametinib) is given as “reduce”.
